The results in this text go back to patent publication US4292241A, “Antibiotic PA-31088-IV and production thereof” (Shionogi & Co., Ltd., priority 1979, dated 1981).

One assay relates to S. marcescens 39. The assay is described as follows: Synergistic activity with other β-lactam antibiotics (MIC). It is filed as cell-based. An excerpt: (§1) (c) Synergistic activity with other β-lactam antibiotics
Another assay concerns P. vulgaris 50. The assay is described as above. It is filed as cell-based.
Excerpt: as §1

The test system of a further assay is S. aureus 2132. The assay is described as above. It is filed as cell-based.
For assay [1], the target named is lactamase of cephalosporinase type (Enterobactor cloacae 92) (Enterobacter cloacae, UniProt P05364). In words: β-Lactamase inhibitory activity. It is filed as biochemical. The following applies: β-lactamase producing bacteria Enterobactor cloacae 92, cephalosporinase type. The source says: (§2) (b) β-Lactamase inhibitory activity
Chain of lactamase of cephalosporinase type (Enterobactor cloacae 92) (P05364 21-381): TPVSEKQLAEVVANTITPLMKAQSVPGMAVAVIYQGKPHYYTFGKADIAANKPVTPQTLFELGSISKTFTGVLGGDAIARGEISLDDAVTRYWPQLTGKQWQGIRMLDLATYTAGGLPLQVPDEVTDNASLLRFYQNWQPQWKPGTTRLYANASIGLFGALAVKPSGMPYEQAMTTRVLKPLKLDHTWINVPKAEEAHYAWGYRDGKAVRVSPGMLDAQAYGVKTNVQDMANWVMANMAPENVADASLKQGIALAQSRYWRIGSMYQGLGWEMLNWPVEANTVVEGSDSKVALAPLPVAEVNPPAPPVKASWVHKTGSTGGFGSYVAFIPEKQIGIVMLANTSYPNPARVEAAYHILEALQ
*produces lactamase of cephalosporinase type

Assay [2] concerns lactamase of penicillinase type (Klebsiella sp. 363). In words: β-Lactamase inhibitory activity. It is filed as biochemical. The following applies: β-lactamase producing bacteria Klebsiella sp. 363, penicillinase type.
Excerpt: as §2
**produces lactamase of penicillinase type

The next assay concerns Enterobactor cloacae 233. In words: Antibacterial spectrum (MIC). It is filed as cell-based. The settings on record: inoculum one loopful of 10^6 cfu/ml. The source says: (§3) (a) Antibacterial spectrum | Inoculum size = one loopful of 10^6 cfu/ml
A further assay concerns Proteus mirabilis PR-4. The assay is described as follows: Antibacterial spectrum (MIC). It is filed as cell-based. The settings on record: inoculum one loopful of 10^6 cfu/ml.
Excerpt: as §3

In assay [3] the test system is Pseudomonas aeruginosa ATCC 25619. In words: Antibacterial spectrum (MIC). It is filed as cell-based. The settings on record: inoculum one loopful of 10^6 cfu/ml.
Excerpt: as §3

Assay [4] concerns Serratia marcescens ATCC 13880. In words: Antibacterial spectrum (MIC). It is filed as cell-based. The following applies: inoculum one loopful of 10^6 cfu/ml.
Excerpt: as §3

Assay [5] deals with Staphylococcus aureus 209P JC-1. In words: Antibacterial spectrum (MIC). The following applies: inoculum one loopful of 10^6 cfu/ml. It is filed as cell-based.
Excerpt: as §3

Assay [6] concerns Klebsiella pneumoniae SRL-1. In words: Antibacterial spectrum (MIC). It is filed as cell-based. The settings on record: inoculum one loopful of 10^6 cfu/ml.
Excerpt: as §3

The subject of the next assay is Klebsiella sp. 363 (R). The assay is described as follows: Antibacterial spectrum (MIC). It is filed as cell-based. The settings on record: inoculum one loopful of 10^6 cfu/ml.
Excerpt: as §3

Assay [7] deals with Escherichia coli NIHJ JC-2. In words: Antibacterial spectrum (MIC). It is filed as cell-based. The following applies: inoculum one loopful of 10^6 cfu/ml.
Excerpt: as §3

For assay [8], the system named is Streptococcus pneumoniae I. The assay is described as follows: Antibacterial spectrum (MIC). The settings on record: inoculum one loopful of 10^6 cfu/ml. It is filed as cell-based.
Excerpt: as §3

As for `CC1(C)S[C@@H]2[C@H](NC(=O)[C@H](N)c3ccccc3)C(=O)N2[C@H]1C(=O)O` [Ampicillin, ampicillin], the “MIC of Ampicillin” value with S. marcescens 39 (PA-31088-IV 0 μg/ml) was more than 200 mg/L; in the assay on S. marcescens 39 (with PA-31088-IV 2.5 μg/ml), 3.1 mg/L; in the assay with S. marcescens 39 (with PA-31088-IV 10 μg/ml), 0.1 mg/L; in the assay on P. vulgaris 50 (PA-31088-IV 0 μg/ml) it was more than 200 mg/L; in the assay with P. vulgaris 50 (with PA-31088-IV 2.5 μg/ml), 6.3 mg/L; in the assay with P. vulgaris 50 (with PA-31088-IV 10 μg/ml), 1.6 mg/L.
Regarding `Cc1nnc(SCC2=C(C(=O)O)N3C(=O)[C@@H](NC(=O)Cn4cnnn4)[C@H]3SC2)s1` [Cefazolin, cefazolin], the “MIC of Cefazolin” value with S. aureus 2132 (PA-31088-IV 0 μg/ml) was 6.3 mg/L; with S. aureus 2132 (with PA-31088-IV 2.5 μg/ml) it was 0.8 mg/L; in the assay on S. aureus 2132 (with PA-31088-IV 10 μg/ml) it was 0.4 mg/L; in the assay with S. marcescens 39 (PA-31088-IV 0 μg/ml), more than 200 mg/L; in the assay with S. marcescens 39 (with PA-31088-IV 2.5 μg/ml), 6.3 mg/L; in the assay on S. marcescens 39 (with PA-31088-IV 10 μg/ml), 0.4 mg/L. For the same molecule, the “MIC of Cefazolin” value in the assay with P. vulgaris 50 (PA-31088-IV 0 μg/ml) was more than 200 mg/L; in the assay on P. vulgaris 50 (with PA-31088-IV 2.5 μg/ml) it was 6.3 mg/L; in the assay on P. vulgaris 50 (with PA-31088-IV 10 μg/ml), 3.1 mg/L.
`CC(=O)NC=CS(=O)(=O)C1=C(C(=O)O)N2C(=O)C(=C(C)CO)C2C1` (centres unmarked) [PA-31088-IV, 3-[(2-acetamidoethylene)sulfonyl]-6-(2-hydroxy-1-methylethylidene)-7-oxo-1-azabicyclo[3.2.0]hept-2-ene-2-carboxylic acid]: the “MIC of PA-31088-IV” value in the assay on S. aureus 2132 (PA-31088-IV alone), in the assay with S. marcescens 39 (PA-31088-IV alone) and with P. vulgaris 50 (PA-31088-IV alone) was more than 10 mg/L each time. Also, the “Minimum Inhibitory Concentration (β-lactamase inhibitory activity)” value in assay [1] came to 0.98 µg/mL; in assay [2], 0.06 µg/mL. For the same molecule, the “Minimum Inhibitory Concentration” value in the assay with Enterobactor cloacae 233 was 3.13 µg/mL; in the assay on Proteus mirabilis PR-4, 6.25 µg/mL; in [3], 50 µg/mL; in assay [4], 12.5 µg/mL; in [5], 3.13 µg/mL; in assay [6], 1.56 µg/mL. The “Minimum Inhibitory Concentration” value came to 3.13 µg/mL in the assay on Klebsiella sp. 363 (R), 3.13 µg/mL in assay [7] and 0.39 µg/mL in assay [8].
